According to patent US9593149B2, “Amylin and calcitonin receptor agonist” (Novo Nordisk A/S, priority 2014, dated 2017):
Converted amounts (≈) assume the structure as drawn. Numbered stars: 1 amine (or outer) side, 2 acyl side, 3 side chain; on linkers, the order of the positions; unused ones are H or OH. Side chains are listed from the residue outwards. Peptide text beside a SMILES is read from it. * marks the point of attachment. C20 diacid = O=C(O)CCCCCCCCCCCCCCCCCCC(=O)*; γGlu = O=C(O)[C@H](CCC(=O)[*:2])N[*:1]

Columns and labels:
[1] = Assay (IV) determination of solubility; type: physicochemical
Description: Assay (IV)—Determination of Solubility
The mimylin peptide was dissolved in water at ˜500 nmol/ml and mixed 1:1 with a series of buffers (100 mM glycylglycine pH 3.0, 100 mM glycylglycine pH 4.0, 100 mM glycylglycine pH 5.0, 100 mM bistrispropane pH 6.0, 100 mM bistrispropane pH 6.5, 100 mM bistrispropane pH 7.0, 100 mM bistrispropane pH 7.5, 100 mM bistrispropane pH 8.0).

rat calcitonin receptor = molecular target: T1, rat calcitonin receptor (Rattus norvegicus, UniProt P32214); test: Assay (VIII) binding to the rat calcitonin receptor; conditions: membranes; read-out: rCT-R binding IC50
T1 construct: expressed in transfected cells; host or cells: BHK tk'ts 13 (transient, FuGENE 6)
T1 sequence (P32214 25-479 isoform P32214-2 limits assumed): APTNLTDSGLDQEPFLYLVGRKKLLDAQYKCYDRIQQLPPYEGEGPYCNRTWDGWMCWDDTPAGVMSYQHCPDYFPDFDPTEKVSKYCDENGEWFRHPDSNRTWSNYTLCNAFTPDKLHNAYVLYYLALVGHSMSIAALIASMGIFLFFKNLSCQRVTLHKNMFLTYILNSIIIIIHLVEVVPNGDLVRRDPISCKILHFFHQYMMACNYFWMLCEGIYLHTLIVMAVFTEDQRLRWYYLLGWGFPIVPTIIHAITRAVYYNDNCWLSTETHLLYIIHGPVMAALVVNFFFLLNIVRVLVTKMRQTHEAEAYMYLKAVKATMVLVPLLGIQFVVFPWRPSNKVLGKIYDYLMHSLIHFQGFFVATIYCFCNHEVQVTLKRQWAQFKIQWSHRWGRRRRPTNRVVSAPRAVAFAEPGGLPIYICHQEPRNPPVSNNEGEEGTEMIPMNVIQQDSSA
Description: The morning after, the plates were washed three times in HBSS (4° C.), and lyzed in Lysis buffer (0.1 M NaOH), 1% SDS. Scintillation cocktail (MicroScint40®) was added and the plates were shaken at 500 rpm for a short period. The plate was incubated at room temperature in the dark for 1 hour and Read on a TopCounter™ (Packard). The IC50 was calculated using (one site binding competition analysis) GraphPad Prism5 as a measure of receptor affinity. Assay (VIII)—Determination of Binding to the Rat Calcitonin Receptor
The assay was performed as described above (Assay (VII)—Determination of binding to the human calcitonin receptor) with the exception that we used membranes prepared from BHK tk'ts 13 cells that were transiently transfected with the rat calcitonin receptor. The BHK tk'ts 13 cells were transiently transfected with rat calcitonin receptor using FuGENE® 6 (Roche), according to the manufacturer's recommendations. Cells were grown in DMEM with 10% FBS and 1% Pen/Strep.

| SMILES | Solubility ([1]; pH 3.0) | solubility at 18 h ([1]; pH 4.0) [µM] | Solubility ([1]; pH 5.0) | Solubility ([1]; pH 6.0) | Solubility ([1]; pH 6.5) | Solubility ([1]; pH 7.0) | Solubility ([1]; pH 7.5) | Solubility ([1]; pH 8.0) | IC50 (rat calcitonin receptor) [nM] | Solubility ([1]; pH 4.0) | solubility at 18 h ([1]; pH 5.0) [µM] |
| --- | --- | --- | --- | --- | --- | --- | --- | --- | --- | --- | --- |
| CC(C)C[C@H](NC(=O)CNC(=O)[C@H](CO)NC(=O)[C@H](C)NC(=O)CC[C@H](NC(=O)CCCCCCCCCCCCCCCCCCC(=O)O)C(=O)O)C(=O)N[C@@H](CO)C(=O)N[C@H](C(=O)N[C@@H](C)C(=O)N[C@H](C(=O)N[C@@H](CC(C)C)C(=O)NCC(=O)N[C@@H](CCCCN)C(=O)N[C@@H](CC(C)C)C(=O)N[C@@H](CO)C(=O)N[C@@H](CCC(N)=O)C(=O)N[C@@H](CCC(=O)O)C(=O)N[C@@H](CC(C)C)C(=O)N[C@@H](Cc1cnc[nH]1)C(=O)N[C@@H](CCC(=O)O)C(=O)N[C@@H](CC(C)C)C(=O)N[C@@H](CCC(N)=O)C(=O)N[C@H](C(=O)N[C@@H](Cc1ccc(O)cc1)C(=O)N1CCC[C@H]1C(=O)N1CCC[C@H]1C(=O)N[C@H](C(=O)N[C@@H](CCC(=O)O)C(=O)N[C@H](C(=O)NCC(=O)N[C@@H](CO)C(=O)NCC(=O)N[C@H](C(=O)N[C@@H](Cc1ccc(O)cc1)C(N)=O)[C@@H](C)O)[C@@H](C)O)[C@@H](C)O)[C@@H](C)O)C(C)C)[C@@H](C)O [compound 131, [N-terminal(C20 diacid-gGlu), des1, 4G, 9V, 12K, 15Q, 21Q, 23Y, 25P, 30S, 31G, 32T, 33Y]mimylin] ({C20 diacid-γGlu}-ASGLSTAVLGKLSQELHELQTYPPTETGSGTY-NH2) | ≧200 μM | 10 (≈ 37.9 µg/mL) | ≧200 μM | ≧200 μM | ≧200 μM | ≧200 μM | ≧200 μM | ≧200 μM | 0.246 |  |  |
| CC(C)C[C@H](NC(=O)CNC(=O)[C@H](CO)NC(=O)[C@H](C)NC(=O)COCCOCCNC(=O)COCCOCCNC(=O)CC[C@H](NC(=O)CCCCCCCCCCCCCCCCC(=O)O)C(=O)O)C(=O)N[C@@H](CO)C(=O)N[C@H](C(=O)N[C@@H](C)C(=O)N[C@H](C(=O)N[C@@H](CC(C)C)C(=O)NCC(=O)N[C@@H](CCCNC(=N)N)C(=O)N[C@@H](CC(C)C)C(=O)N[C@@H](CO)C(=O)N[C@@H](CCC(N)=O)C(=O)N[C@@H](CCC(=O)O)C(=O)N[C@@H](CC(C)C)C(=O)N[C@@H](Cc1cnc[nH]1)C(=O)N[C@@H](CCC(=O)O)C(=O)N[C@@H](CC(C)C)C(=O)N[C@@H](CCC(N)=O)C(=O)N[C@H](C(=O)N[C@@H](Cc1ccc(O)cc1)C(=O)N1CCC[C@H]1C(=O)N[C@@H](CCCNC(=N)N)C(=O)N[C@H](C(=O)N[C@@H](CCC(=O)O)C(=O)N[C@H](C(=O)NCC(=O)N[C@@H](CO)C(=O)NCC(=O)N[C@H](C(=O)N[C@@H](Cc1ccc(O)cc1)C(N)=O)[C@@H](C)O)[C@@H](C)O)[C@@H](C)O)[C@@H](C)O)C(C)C)[C@@H](C)O [compound 121, [N-terminal(C18 diacid-gGlu-2xOEG), des1, 4G, 9V, 15Q, 21Q, 23Y, 30S, 31G, 32T, 33Y]mimylin] | ≧200 μM |  |  | ≧200 μM | ≧200 μM | ≧200 μM | ≧200 μM | ≧200 μM | 0.032 | ≧200 μM | 110 (≈ 455 µg/mL) |
| CC(C)C[C@H](NC(=O)[C@H](C)NC(=O)[C@H](C)NC(=O)[C@@H](NC(=O)[C@H](CO)NC(=O)[C@H](CC(C)C)NC(=O)[C@H](CCC(=O)O)NC(=O)[C@H](CO)NC(=O)[C@H](C)N)[C@@H](C)O)C(=O)NCC(=O)N[C@@H](CCCNC(=N)N)C(=O)N[C@@H](CC(C)C)C(=O)N[C@@H](CO)C(=O)N[C@@H](C)C(=O)N[C@@H](CCCCNC(=O)CC[C@H](NC(=O)CCCCCCCCCCCCCCCCCCC(=O)O)C(=O)O)C(=O)N[C@@H](CC(C)C)C(=O)N[C@@H](Cc1cnc[nH]1)C(=O)N[C@@H](CCC(=O)O)C(=O)N[C@@H](CC(C)C)C(=O)N[C@@H](C)C(=O)N[C@H](C(=O)N[C@@H](CC(C)C)C(=O)N1CCC[C@H]1C(=O)N[C@@H](CCCNC(=N)N)C(=O)N[C@H](C(=O)N[C@@H](CCC(=O)O)C(=O)N[C@H](C(=O)NCC(=O)N[C@@H](CO)C(=O)NCC(=O)N[C@@H](CO)C(=O)N1CCC[C@H]1C(N)=O)[C@@H](C)O)[C@@H](C)O)[C@@H](C)O [compound 53, [des1, 16K(C20 diacid-gGlu), 30S, 31G]mimylin] (H-ASELSTAALGRLSAK([γGlu-C20 diacid])LHELATLPRTETGSGSP-NH2) | ≧200 μM |  | ≧200 μM | ≧200 μM | ≧200 μM | ≧200 μM | ≧200 μM | ≧200 μM | 0.065 | ≧200 μM |  |
| CC(C)C[C@H](NC(=O)CNC(=O)[C@H](CO)NC(=O)[C@H](C)NC(=O)CC[C@H](NC(=O)CCCCCCCCCCCCCCCCCCC(=O)O)C(=O)O)C(=O)N[C@@H](CO)C(=O)N[C@H](C(=O)N[C@@H](C)C(=O)N[C@@H](C)C(=O)N[C@@H](CC(C)C)C(=O)NCC(=O)N[C@@H](CCCNC(=N)N)C(=O)N[C@@H](CC(C)C)C(=O)N[C@@H](CO)C(=O)N[C@@H](CCC(N)=O)C(=O)N[C@@H](CCC(=O)O)C(=O)N[C@@H](CC(C)C)C(=O)N[C@@H](Cc1cnc[nH]1)C(=O)N[C@@H](CCC(=O)O)C(=O)N[C@@H](CC(C)C)C(=O)N[C@@H](CCC(N)=O)C(=O)N[C@H](C(=O)N[C@@H](Cc1ccc(O)cc1)C(=O)N1CCC[C@H]1C(=O)N[C@@H](CCCNC(=N)N)C(=O)N[C@H](C(=O)N[C@@H](CCC(=O)O)C(=O)N[C@H](C(=O)NCC(=O)N[C@@H](CO)C(=O)N[C@@H](CCC(N)=O)C(=O)N[C@H](C(=O)N[C@@H](Cc1ccc(O)cc1)C(N)=O)[C@@H](C)O)[C@@H](C)O)[C@@H](C)O)[C@@H](C)O)[C@@H](C)O [compound 109, [N-terminal(C20 diacid-gGlu), des1, 4G, 15Q, 21Q, 23Y, 30S, 31Q, 32T, 33Y]mimylin] ({C20 diacid-γGlu}-ASGLSTAALGRLSQELHELQTYPRTETGSQTY-NH2) | ≧200 μM |  |  | ≧200 μM | ≧200 μM | ≧200 μM | ≧200 μM | ≧200 μM | 0.012 | ≧200 μM | 7 (≈ 27.4 µg/mL) |
| CC(C)C[C@H](NC(=O)[C@H](CCCNC(=N)N)NC(=O)CNC(=O)[C@H](CC(C)C)NC(=O)[C@@H](NC(=O)[C@H](C)NC(=O)[C@@H](NC(=O)[C@H](CO)NC(=O)[C@H](CC(C)C)NC(=O)[C@H](CCC(=O)O)NC(=O)[C@H](CO)NC(=O)[C@H](C)NC(=O)CC[C@H](NC(=O)CCCCCCCCCCCCCCCCCCC(=O)O)C(=O)O)[C@@H](C)O)[C@@H](C)O)C(=O)N[C@@H](CO)C(=O)N[C@@H](C)C(=O)N[C@@H](CCC(=O)O)C(=O)N[C@@H](CC(C)C)C(=O)N[C@@H](Cc1cnc[nH]1)C(=O)N[C@@H](CCC(=O)O)C(=O)N[C@@H](CC(C)C)C(=O)N[C@@H](CO)C(=O)N[C@H](C(=O)N[C@@H](Cc1ccc(O)cc1)C(=O)N1CCC[C@H]1C(=O)N[C@@H](CCCNC(=N)N)C(=O)N[C@H](C(=O)N[C@@H](CCC(=O)O)C(=O)N[C@H](C(=O)NCC(=O)N[C@@H](CO)C(=O)NCC(=O)N[C@@H](CO)C(=O)N[C@@H](Cc1ccc(O)cc1)C(N)=O)[C@@H](C)O)[C@@H](C)O)[C@@H](C)O [compound 99, [N-terminal(C20 diacid-gGlu), des1, 9T, 21S, 23Y, 30S, 31G, 33Y]mimylin] ({C20 diacid-γGlu}-ASELSTATLGRLSAELHELSTYPRTETGSGSY-NH2) | ≧200 μM |  |  | ≧200 μM | ≧200 μM | ≧200 μM | ≧200 μM | ≧200 μM | 0.069 | ≧200 μM | 19 (≈ 72.9 µg/mL) |
